Legend:
Type in all cases: cell-based
M2 muscarinic receptor = biological target: T1, M2 muscarinic receptor (Homo sapiens, UniProt P08172); assay: Functional mobilization of intracellular calcium (FLIPR), M2-CHO cells; conditions: for M2 Activity: M2-CHO cells, calcium mobilization (FLIPR)
T1 construct: expressed in transfected cells; host or cells: CHO (M2-CHO)
T1 sequence (P08172 1-466): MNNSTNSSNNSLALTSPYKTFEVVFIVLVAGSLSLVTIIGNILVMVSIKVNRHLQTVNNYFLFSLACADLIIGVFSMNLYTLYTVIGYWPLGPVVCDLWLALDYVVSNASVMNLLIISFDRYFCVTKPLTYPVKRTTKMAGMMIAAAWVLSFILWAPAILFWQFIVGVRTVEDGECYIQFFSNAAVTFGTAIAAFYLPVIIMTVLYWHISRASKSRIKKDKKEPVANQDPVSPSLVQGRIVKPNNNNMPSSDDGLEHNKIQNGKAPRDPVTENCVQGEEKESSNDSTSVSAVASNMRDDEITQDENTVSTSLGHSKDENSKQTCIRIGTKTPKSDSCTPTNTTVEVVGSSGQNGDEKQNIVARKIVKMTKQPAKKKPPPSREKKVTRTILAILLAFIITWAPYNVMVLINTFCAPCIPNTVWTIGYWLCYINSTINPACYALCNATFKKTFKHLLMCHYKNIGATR
Summary of the method: (§1)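 FLIPR fluorescence (ex 488, em 540 nm) recorded 60 sec after compound addition to dye-loaded CHO cells. Agonist mode: compound alone. Antagonist mode: 15 min compound pre-incubation, then carbachol at EC80, or co-application. Efficacy expressed as % of maximal carbachol response.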

M1 muscarinic receptor = biological target: T2, M1 muscarinic receptor (Homo sapiens, UniProt P11229); assay: Functional mobilization of intracellular calcium (FLIPR), M1-CHO cells; conditions: for M1 Activity: M1-CHO cells, calcium mobilization (FLIPR)
T2 construct: expressed in transfected cells; host or cells: CHO (M1-CHO)
T2 sequence (P11229 1-460): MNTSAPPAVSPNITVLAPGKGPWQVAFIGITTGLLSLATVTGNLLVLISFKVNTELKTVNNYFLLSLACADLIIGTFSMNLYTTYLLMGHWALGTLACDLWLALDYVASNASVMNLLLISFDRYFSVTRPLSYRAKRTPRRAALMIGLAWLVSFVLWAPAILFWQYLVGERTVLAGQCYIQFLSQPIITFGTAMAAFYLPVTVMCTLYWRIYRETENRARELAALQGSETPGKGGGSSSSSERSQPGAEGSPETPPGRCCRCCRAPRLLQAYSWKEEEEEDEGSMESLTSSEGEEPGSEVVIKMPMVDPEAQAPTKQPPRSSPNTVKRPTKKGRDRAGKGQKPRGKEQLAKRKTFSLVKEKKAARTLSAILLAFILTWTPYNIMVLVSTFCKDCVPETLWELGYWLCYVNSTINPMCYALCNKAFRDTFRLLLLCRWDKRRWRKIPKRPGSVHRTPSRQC
Summary of the method: as §1

M4 muscarinic receptor = biological target: T3, M4 muscarinic receptor (Homo sapiens, UniProt P08173); assay: Functional mobilization of intracellular calcium (FLIPR), M4-CHO cells; conditions: for M4 Activity: M4-CHO cells, calcium mobilization (FLIPR)
T3 construct: expressed in transfected cells; host or cells: CHO (M4-CHO)
T3 sequence (P08173 1-479): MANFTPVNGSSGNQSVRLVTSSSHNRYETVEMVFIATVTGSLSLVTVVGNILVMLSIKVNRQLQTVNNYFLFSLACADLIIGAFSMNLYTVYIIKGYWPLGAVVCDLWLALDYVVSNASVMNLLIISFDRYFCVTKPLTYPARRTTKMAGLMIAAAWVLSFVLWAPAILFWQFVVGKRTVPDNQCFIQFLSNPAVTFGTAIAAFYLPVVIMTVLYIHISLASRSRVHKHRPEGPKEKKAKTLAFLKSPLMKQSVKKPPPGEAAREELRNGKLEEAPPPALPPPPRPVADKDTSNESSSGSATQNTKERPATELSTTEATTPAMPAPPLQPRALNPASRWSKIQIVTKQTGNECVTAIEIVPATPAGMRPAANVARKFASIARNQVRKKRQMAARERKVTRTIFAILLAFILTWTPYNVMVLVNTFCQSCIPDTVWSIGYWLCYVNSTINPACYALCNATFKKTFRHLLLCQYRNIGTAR
Summary of the method: as §1

M3 muscarinic receptor = biological target: T4, M3 muscarinic receptor (Homo sapiens, UniProt P20309); assay: Functional mobilization of intracellular calcium (FLIPR), M3-CHO cells; conditions: for M3 Activity: M3-CHO cells, calcium mobilization (FLIPR)
T4 construct: expressed in transfected cells; host or cells: CHO (M3-CHO)
T4 sequence (P20309 whole entry): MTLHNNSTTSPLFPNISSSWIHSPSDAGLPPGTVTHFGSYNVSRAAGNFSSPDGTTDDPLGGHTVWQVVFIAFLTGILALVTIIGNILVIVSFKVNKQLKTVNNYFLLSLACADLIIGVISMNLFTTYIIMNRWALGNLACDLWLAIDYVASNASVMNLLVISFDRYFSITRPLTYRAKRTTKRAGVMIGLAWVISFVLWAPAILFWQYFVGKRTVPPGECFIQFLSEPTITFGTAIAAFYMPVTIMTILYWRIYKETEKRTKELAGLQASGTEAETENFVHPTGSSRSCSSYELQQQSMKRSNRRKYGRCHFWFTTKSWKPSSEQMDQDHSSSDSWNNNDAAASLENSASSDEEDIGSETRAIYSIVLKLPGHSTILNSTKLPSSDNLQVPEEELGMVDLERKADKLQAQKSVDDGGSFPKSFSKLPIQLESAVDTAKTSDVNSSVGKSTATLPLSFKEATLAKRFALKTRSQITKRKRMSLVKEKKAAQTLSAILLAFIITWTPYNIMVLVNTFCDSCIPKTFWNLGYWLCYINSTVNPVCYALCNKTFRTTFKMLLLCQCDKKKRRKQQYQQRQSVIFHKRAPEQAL
Summary of the method: as §1

[1] = 100% efficacy = maximum response obtained with the Carbachol control
[2] = 100% efficacy is the maximum response obtained with the Carbachol control

Emax (M2 muscarinic receptor; [1]) [%] | Emax (M1 muscarinic receptor; [1]) [%] | Emax (M4 muscarinic receptor; [1]) [%] | Emax (M3 muscarinic receptor; [1]) [%] | Emax (M2 muscarinic receptor; [2]) [%] | Emax (M1 muscarinic receptor; [2]) [%] | Emax (M4 muscarinic receptor; [2]) [%] | Emax (M3 muscarinic receptor; [2]) [%] | Compound | M2 Activity (M2 muscarinic receptor) | M1 Activity (M1 muscarinic receptor) | M4 Activity (M4 muscarinic receptor) | M3 Activity (M3 muscarinic receptor) | M2 Efficacy (M2 muscarinic receptor; [1]) | M1 Efficacy (M1 muscarinic receptor; [1]) | M4 Efficacy (M4 muscarinic receptor; [1]) | M3 Efficacy (M3 muscarinic receptor; [1])
< 25 | 25 to 100 | 25 to 100 | < 25 |  |  |  |  | CCOC(=O)N1CCC(CN2CCC(c3ccc(F)cc3OC)CC2)CC1 [Compound 364] | + (activity was measured to be greater than 5.0 μM) | +++ (activity was measured to be less than 1.0 μM) | +++ (activity was measured to be less than 1.0 μM) | + (activity was measured to be greater than 5.0 μM) |  |  |  | 
 |  |  |  | 25 to 100 | 25 to 100 | 25 to 100 | < 25 | COc1ccccc1C(=O)COc1ccccc1C1CCN([C@H]2C[C@H]3CC[C@H]2C3)CC1 [Compound 422] | ++ (activity was measured to be from 1.0 μM to 5.0 μM) | ++ (activity was measured to be from 1.0 μM to 5.0 μM) | +++ (activity was measured to be less than 1.0 μM) | + (activity was measured to be greater than 5.0 μM) |  |  |  | 
< 25 | 25 to 100 | 25 to 100 | < 25 |  |  |  |  | CCOC(=O)N1CCC(CN2CCC(c3cc(-c4ccc(C#N)cc4)ccc3OC)CC2)CC1 [Compound 345] | + (activity was measured to be greater than 5.0 μM) | ++ (activity was measured to be from 1.0 μM to 5.0 μM) | +++ (activity was measured to be less than 1.0 μM) | + (activity was measured to be greater than 5.0 μM) |  |  |  | 
< 25 | < 25 | 25 to 100 | < 25 |  |  |  |  | COc1ccc(-c2ccc(CC#N)cc2)cc1C1CCN(C2CC3CCC(C3)C2)CC1 (stereo not shown) [Compound 173] | + (activity was measured to be greater than 5.0 μM) | + (activity was measured to be greater than 5.0 μM) | + (activity was measured to be greater than 5.0 μM) | + (activity was measured to be greater than 5.0 μM) |  |  |  | 
< 25 | < 25 | 25 to 100 | < 25 |  |  |  |  | COc1ccc(C#CCC(C)C)cc1C1CCN([C@H]2C[C@H]3CC[C@H]2C3)CC1 [Compound 223] | + (activity was measured to be greater than 5.0 μM) | + (activity was measured to be greater than 5.0 μM) | + (activity was measured to be greater than 5.0 μM) | + (activity was measured to be greater than 5.0 μM) |  |  |  | 
 |  |  |  |  |  |  |  | COc1ccc(Cl)cc1C1CCN(C2CCC(=NOC3CCCCO3)CC2)CC1 (stereo not shown) [Compound 54] | + (activity was measured to be greater than 5.0 μM) | ++ (activity was measured to be from 1.0 μM to 5.0 μM) | +++ (activity was measured to be less than 1.0 μM) | + (activity was measured to be greater than 5.0 μM) | + (efficacy was calculated to be less than 25%) | ++ (efficacy was calculated to be from 100% to 25%) | ++ (efficacy was calculated to be from 100% to 25%) | + (efficacy was calculated to be less than 25%)
25 to 100 | 25 to 100 | 25 to 100 | < 25 |  |  |  |  | Cc1ccc(F)c(C2CCN(C3C[C@H]4CC[C@H]3C4)CC2)c1 (stereo partly shown) [Compound 290] | + (activity was measured to be greater than 5.0 μM) | ++ (activity was measured to be from 1.0 μM to 5.0 μM) | ++ (activity was measured to be from 1.0 μM to 5.0 μM) | + (activity was measured to be greater than 5.0 μM) |  |  |  | 
< 25 | < 25 | 25 to 100 | < 25 |  |  |  |  | CNC(=O)c1ccc(-c2ccc(OC)c(C3CCN(C4CC5CCC(C5)C4)CC3)c2)cc1 (stereo not shown) [Compound 196] | + (activity was measured to be greater than 5.0 μM) | + (activity was measured to be greater than 5.0 μM) | +++ (activity was measured to be less than 1.0 μM) | + (activity was measured to be greater than 5.0 μM) |  |  |  | 
< 25 | < 25 | 25 to 100 | < 25 |  |  |  |  | COc1c(F)cc(F)cc1C1CCN(C2CC3CCC(C3)C2)CC1 (stereo not shown) [Compound 311] | + (activity was measured to be greater than 5.0 μM) | + (activity was measured to be greater than 5.0 μM) | +++ (activity was measured to be less than 1.0 μM) | + (activity was measured to be greater than 5.0 μM) |  |  |  | 
25 to 100 | 25 to 100 | 25 to 100 | < 25 |  |  |  |  | COc1ccc(Cl)cc1C1(F)CCN(CC2CC3CCC2C3)CC1 (stereo not shown) [Compound 326] | + (activity was measured to be greater than 5.0 μM) | + (activity was measured to be greater than 5.0 μM) | ++ (activity was measured to be from 1.0 μM to 5.0 μM) | + (activity was measured to be greater than 5.0 μM) |  |  |  | 
< 25 | < 25 | 25 to 100 | < 25 |  |  |  |  | COc1cccc(-c2ccc(OC)c(C3CCN([C@@H]4C[C@H]5CC[C@H]4C5)CC3)c2)c1 [Compound 69] | + (activity was measured to be greater than 5.0 μM) | + (activity was measured to be greater than 5.0 μM) | + (activity was measured to be greater than 5.0 μM) | + (activity was measured to be greater than 5.0 μM) |  |  |  | 
25 to 100 | 25 to 100 | 25 to 100 | < 25 |  |  |  |  | O=C(COc1ccccc1C1CCN([C@H]2C[C@H]3CC[C@H]2C3)CC1)c1ccc(N2CCCC2)cc1 [Compound 127] | ++ (activity was measured to be from 1.0 μM to 5.0 μM) | ++ (activity was measured to be from 1.0 μM to 5.0 μM) | +++ (activity was measured to be less than 1.0 μM) | + (activity was measured to be greater than 5.0 μM) |  |  |  | 

Compound | Emax (M2 muscarinic receptor; [1]) [%] | Emax (M1 muscarinic receptor; [1]) [%] | Emax (M4 muscarinic receptor; [1]) [%] | Emax (M3 muscarinic receptor; [1]) [%] | Emax (M2 muscarinic receptor; [2]) [%] | Emax (M1 muscarinic receptor; [2]) [%] | Emax (M4 muscarinic receptor; [2]) [%] | Emax (M3 muscarinic receptor; [2]) [%] | M2 Activity (M2 muscarinic receptor) | M1 Activity (M1 muscarinic receptor) | M4 Activity (M4 muscarinic receptor) | M3 Activity (M3 muscarinic receptor) | M2 Efficacy (M2 muscarinic receptor; [1]) | M1 Efficacy (M1 muscarinic receptor; [1]) | M4 Efficacy (M4 muscarinic receptor; [1]) | M3 Efficacy (M3 muscarinic receptor; [1])
CCOC(=O)N1C2CCC1CC(N1CCC(c3cc(-c4ccc(CC#N)cc4)ccc3OC)CC1)C2 (stereo not shown) [Compound 254] | < 25 | 25 to 100 | 25 to 100 | < 25 |  |  |  |  | + (activity was measured to be greater than 5.0 μM) | + (activity was measured to be greater than 5.0 μM) | ++ (activity was measured to be from 1.0 μM to 5.0 μM) | + (activity was measured to be greater than 5.0 μM) |  |  |  | 
CCOC(=O)N1CCC(N2C3CCC2CC(c2ccccc2OC)C3)CC1 (stereo not shown) [Compound 289, ethyl 4-(3-(2-methoxyphenyl)-8-azabicyclo-[3.2.1]octan-8-yl)piperidine-1-carboxylate] | < 25 | < 25 | 25 to 100 | < 25 |  |  |  |  | + (activity was measured to be greater than 5.0 μM) | + (activity was measured to be greater than 5.0 μM) | ++ (activity was measured to be from 1.0 μM to 5.0 μM) | + (activity was measured to be greater than 5.0 μM) |  |  |  | 

Source: patent US7880007B2, “Bicyclic substituted phenyl piperidine modulators of muscarinic receptors” (Vertex Pharmaceuticals Incorporated, priority 2004, dated 2011)
